Source: patent US20150158914A1, “PEPTIDES, CONSTRUCTS AND USES THEREFOR” (priority 2010, published 2015)
Entries after “also recorded” stand apart in the source; their conditions may differ. Ends that are not written are not given here. * marks the point of attachment. FITC = O=C1OC2(c3ccc(O)cc3Oc3cc(O)ccc32)c2ccc(NC(=S)*)cc21

Legend:
X-protein = test: Non-reducing SDS-PAGE/Western blot of X-protein tertiary structure in HepG2 transfectants; format: cell-based, hepatitis B virus; conditions: peptide added thrice over 48 h, non-reducing conditions
Description: The inventors investigated how the oligomerization domain peptide (aa 16-35) antagonized X-protein-mediated function. The aim was to determine whether the peptide disrupted the tertiary structure of the X-protein. HepG2 cells were transfected with either the pCDNA3.1-HBX, pCDNA3-HBX Myc or pCDNA3-GFP plasmids and were treated thrice over 48 h with the oligomerization domain peptide (aa 16-35). Control transfectants were not treated with peptide. The nuclear subfraction was resolved by SDS-PAGE using non-reducing loading buffer to keep the disulphide bonding of the X-protein intact. The proteins were transferred onto a PVDF membrane, and probed with a mouse antihuman X-protein primary antibody, followed by a secondary goat anti-mouse HRP-conjugated antibody. […] Transfectants not treated with peptide expressed higher order forms of the X-protein, including the dimeric form at ˜34 kDa, and apparently even higher order structures (FIG. 11). In contrast, cells transfected with pCDNA3.1-HBX and pCDNA3-HBX Myc and treated with the oligomerization domain peptide expressed monomeric forms at ˜17 kDa and ˜21 kDa, respectively.

C32 melanoma cell line = test: Peptide uptake by other cell lines; format: cell-based, human; conditions: C32, 3 h
Description: (§1) The cells were then incubated overnight at 37° and 5% CO2, and then washed thrice with media without FCS. The X-protein peptide in 250 μl of appropriate media without FCS was added to the cells at a final concentration of 10 μM, and the slides incubated for 3 h at 37° C. and 5% CO2. The cells were washed with PBS, fixed with 4% formaldahyde in PBS for 30 min, and washed thrice with PBS. […] The slides were dried overnight in the dark, and examined by microscopy by using a Nikon E600 fluorescent microscope. Photos were taken using Nikon ACT-1 software. For further examination, slides were then examined by confocal microscopy using a Leica TCS-SP2 confocal microscope.
(§2) The X-protein cell-permeable peptide aa 16-22 was tested for its ability to be taken up by other mammalian cell lines including the human C32 melanoma, DU145 prostate carcinoma, TK1 T cell lymphoma, H441 lung carcinoma, Rin-m5f rat pancreatic islet tumor and Cos-1/7 green monkey kidney cell lines. TK1 cells are suspension cells whereas all other cell lines are adherent cells. Cells were incubated with the fluoresceinated X-protein cell-permeable peptide 16-22 for 3 h in medium appropriate for that cell line in the absence of FCS. The HepG2 cell line was used as a positive control. The X-protein peptide was able enter all adherent cell lines regardless of type or source of the cell (FIGS. 22 and 23).

[1] = test system: DU145 prostate carcinoma cell line; test: Peptide uptake by other cell lines; format: cell-based, human; conditions: DU145, 3 h
Description: as §1, §2

[2] = test system: H441 lung carcinoma cell line; test: Peptide uptake by other cell lines; format: cell-based, human; conditions: H441, 3 h
Description: as §1, §2

Cos-1 kidney cell line = test: Peptide uptake by other cell lines; format: cell-based, green monkey
Description: as §1, §2

Cos-7 kidney cell line = test: Peptide uptake by other cell lines; format: cell-based, green monkey
Description: as §1, §2

[3] = test system: Rin-m5f pancreatic islet tumor cell line; test: Peptide uptake by other cell lines; format: cell-based, rat; conditions: 3 h
Description: as §1, §2

[4] = test system: nonadherent cell line TK1; test: Peptide uptake by suspension cell line; format: cell-based; conditions: TK1 in suspension, 3 h; listed as X-protein cell-permeable peptide aa 16-22
Description: as §1, §2

[5] = test system: nonadherent peripheral blood mononuclear cells; test: Peptide uptake by nonadherent buffy coat cells; format: cell-based, human; conditions: 3 h, RPMI without FCS
Description: (§3) To determine whether this was a general feature of nonadherent cells, the ability of the peptide to enter non-adherent human peripheral blood mononuclear cells was examined. A buffy coat containing monocytes, lymphocytes, and platelets was isolated from 10 ml of human blood and incubated in 8-chamber slides for 3 h with the cell-permeable peptide aa 16-22 in RPMI medium without FCS.

[6] = test system: adherent monocytes and platelets; test: Peptide uptake by adherent buffy coat cells; format: cell-based, human; conditions: 3 h, cells adhered to 8-chamber slides
Description: as §3

[7] = listed as X-protein cell-permeable peptide 16-22
[8] = listed as cell-permeable peptide aa 16-22

Substance	overall level of the X-protein (X-protein)	tertiary structure of the X-protein (dimeric and higher order forms) (X-protein; listed as oligomerization domain peptide (aa 16-35))	entry into cells (C32 melanoma cell line)	uptake of the peptide, cells positive (C32 melanoma cell line; no FCS) [% cells positive]	entry into cells [1]	uptake of the peptide, cells positive ([1]; no FCS) [% cells positive]	entry into cells [2]	uptake of the peptide, cells positive ([2]; no FCS) [% cells positive]	entry into cells (Cos-1 kidney cell line; COS-1, 3 h)	uptake of the peptide, cells positive (Cos-1 kidney cell line; Cos-1, 3 h, no FCS) [% cells positive]	entry into cells (Cos-7 kidney cell line; COS-7, 3 h)	uptake of the peptide, cells positive (Cos-7 kidney cell line; Cos-7, 3 h, no FCS) [% cells positive]	uptake of the peptide, cells positive ([3]; Rin-m5f, no FCS) [% cells positive]	entry into cells ([3]; Rinm5f)	entry into cells [4]	uptake by nonadherent buffy coat cells [5, 7]	uptake by nonadherent buffy coat cells [5, 8]	uptake by adherent monocytes and platelets [6, 7]	uptake by adherent monocytes and platelets [6, 8]
FITC-Acp-LCLRPVGAESRGRPVSGPFG [Peptide 16-35]	did not decrease the overall level of the X-protein	Disruption of the tertiary structure of the X-protein; also recorded: disrupts the tertiary structure of the X-protein, preventing dimerization and the formation of higher order structures																	
FITC-LCLRPVG ({FITC}-LCLRPVG) [Peptide 16-22]			able to enter	> 90	able to enter	> 90	taken up less efficiently	60 to 70	taken up less efficiently	60 to 70	taken up less efficiently	60 to 70	60 to 70	taken up less efficiently	completely unable to enter	unable to enter	did not take up the peptide	able to enter adherent monocytes, and potentially adherent platelets	had taken up the peptide
